Assay results reported in US20240139280A1, “USE OF HIF-1-ALPHA INHIBITORS IN CANCER IMMUNOTHERAPY” (ONCOC4, INC., priority 2021, published 2024).

Tests used:
[1] = system: PD-L1 expression in E0771 cells; assay type: cell-based, murine
[2] = system: core HRE motif EGFP reporter in 4T1-HRE-EGFP cells; assay type: cell-based, murine
intestinal tissues [3] = settings: in vivo
Protocol: (§1) Experimental design for GI-irAE induction by Ipilimumab, with or without additional therapies. 10-day old CTLA4h/h mice received 0.1 mg of Ipilimumab on days 10, 13, 16, and 19 after birth to induce the GI-irAE phenotype, measured by FITC-dextran assay on day 32. On day 33, the mice were sacrificed for histological and immunofluorescent analysis of intestinal tissues, and flow cytometry, etc. […] Aggregate data from 4 experiments are presented. […] Starting on day 10 after birth, the mice began receiving treatment with vehicle (n=33), echinomycin (n=27), Ipilimumab (n=33), Ipilimumab+echinomycin (n=26), Ipilimumab+RMP1-14 (n=27), Ipilimumab+echinomycin+RMP1-14 (n=28), or Ipilimumab+echinomycin+XMG1.2 (n=15). Echinomycin (10 μg/kg), Ipilimumab (0.1 mg/mouse/injection), RMP1-14 (0.2 mg/mouse/injection), and XMG1.2 (0.2 mg/mouse/injection). Vehicle or echinomycin (10 μg/kg) were given once every three days for 8 doses, and mAbs (0.1 mg/mo. for Ipilimumab; 0.2 mg/mo. for RMP1-14 and XMG1.2) once every three days for 4 doses. Data collection was performed as described in (FIG. 8A). […] Serum FITC-dextran intensity shown as mean±SEM for individual mice pooled from 3 independent experiments. […] Statistics were determined by unpaired t tests (two-tailed) for group means. […] Representative H&E images from intestines of Ipilimumab-treated mice additionally treated with echinomycin (panel i), RMP1-14 (panels ii-iv), echinomycin+RMP1-14 (panels v-vi), or echinomycin+XMG1.2 (panels vii-viii). […] Representative immunofluorescence images showing relative expression of PD-L1 in jejunum of mice from different treatment groups.
(§2) Therefore, we used intestinal permeability to orally administrated FITC-dextran and histology as the readout for irAE (FIG. 8A).

intestinal tissues [4] = assay: Ipilimumab-induced GI-irAE in human CTLA4 knockin mice (FITC-dextran, histology, PD-L1); settings: Ipilimumab 0.1 mg/mouse/injection; echinomycin 10 μg/kg added to Ipilimumab
Protocol: as §1, §2

[Cl-].[Cl-].[Co+2] [CoCl2]
PD-L1 expression [1]: further upregulated PD-L1 | EGFP reporter fluorescence activity [2]: marked increase in EGFP reporter fluorescence activity

Ipilimumab: Recombinant anti-CTLA-4 antibody Ipilimumab provided by Lakepharma Inc.
intestinal inflammation / pathology (histological analysis) (intestinal tissues [3]): induced intestinal inflammation | PD-L1 expression in the intestines (intestinal tissues [4]): elevated PD-L1 expression
